Data: patent publication US6586422B2, “Pyrazine and triazine derivatives of 1,2,4,5-tetrahydro-Benzo or Thieno [d] azepine” (Hoffman-La Roche Inc., priority 2000, dated 2003)
pIC50: −log10 of the molar value.

Biological target: T1, rat mGluR1a receptor (Rattus norvegicus, UniProt P23385)
T1 construct: expressed in transfected cells; host or cells: HEK 293 cells (transient transfection; membranes used)
Test: Binding assay for the characterization of mGluR 1 antagonistic properties (tritiated radioligand displacement, membranes of transfected HEK 293 cells)
Conditions: membranes of HEK 293 cells transiently transfected with rat mGluR1a; radioligand 3 nM; 1 hour at room temperature; read-out: B-IC50
Method: Binding Assay for the Characterization of mGluR 1 Antagonistic Properties
Binding assay with tritiated 1-ethyl-2-methyl-6-oxo-4-(1,1,2-tritritio-1,2,4,5-tetrahydro-benzo[d]azepin-3-yl)-1,6-dihydro-pyrimidine-5-carbonitrile (Eur. Pat. Appl. EP 1 074 549 A2): HEK 293 cells were transiently transfected with the rat mGluR1a receptor. The cells were collected and washed 3 times with PBS. The cell pellets were frozen at −80° C. Membranes were prepared from HEK 293 cells transfected with the rat mGluR1a receptor and used in the binding experiments at 10 μg proteins per assay after resuspension in a HEPES NaOH 20 mM, pH=7.4 binding buffer. 1-Ethyl-2-methyl-6-oxo-4-(1,1,2-tritritio-1,2,4,5-tetrahydro-benzo[d]azepin-3-yl)-1,6-dihydro-pyrimidine-5-carbonitrile (S.A 33.4 Ci/mmol) was used at 3 nM final concentration. The incubation with variable concentrations of potential inhibitors was performed for 1 hour at room temperature, the incubate was then filtered onto GF/B glass fiber filter preincubated 1 hour in PEI 0,1% and washed 3 times with 1 ml of cold binding buffer. The radioactivity retained on the unifilter 96 was counted using a Topcount β counter. After correction for non specific binding the data were normalized and the IC50 value calculated using a 4 parameters logistic equation which was fitted to the inhibition curve.

T1 sequence (P23385 19-1199): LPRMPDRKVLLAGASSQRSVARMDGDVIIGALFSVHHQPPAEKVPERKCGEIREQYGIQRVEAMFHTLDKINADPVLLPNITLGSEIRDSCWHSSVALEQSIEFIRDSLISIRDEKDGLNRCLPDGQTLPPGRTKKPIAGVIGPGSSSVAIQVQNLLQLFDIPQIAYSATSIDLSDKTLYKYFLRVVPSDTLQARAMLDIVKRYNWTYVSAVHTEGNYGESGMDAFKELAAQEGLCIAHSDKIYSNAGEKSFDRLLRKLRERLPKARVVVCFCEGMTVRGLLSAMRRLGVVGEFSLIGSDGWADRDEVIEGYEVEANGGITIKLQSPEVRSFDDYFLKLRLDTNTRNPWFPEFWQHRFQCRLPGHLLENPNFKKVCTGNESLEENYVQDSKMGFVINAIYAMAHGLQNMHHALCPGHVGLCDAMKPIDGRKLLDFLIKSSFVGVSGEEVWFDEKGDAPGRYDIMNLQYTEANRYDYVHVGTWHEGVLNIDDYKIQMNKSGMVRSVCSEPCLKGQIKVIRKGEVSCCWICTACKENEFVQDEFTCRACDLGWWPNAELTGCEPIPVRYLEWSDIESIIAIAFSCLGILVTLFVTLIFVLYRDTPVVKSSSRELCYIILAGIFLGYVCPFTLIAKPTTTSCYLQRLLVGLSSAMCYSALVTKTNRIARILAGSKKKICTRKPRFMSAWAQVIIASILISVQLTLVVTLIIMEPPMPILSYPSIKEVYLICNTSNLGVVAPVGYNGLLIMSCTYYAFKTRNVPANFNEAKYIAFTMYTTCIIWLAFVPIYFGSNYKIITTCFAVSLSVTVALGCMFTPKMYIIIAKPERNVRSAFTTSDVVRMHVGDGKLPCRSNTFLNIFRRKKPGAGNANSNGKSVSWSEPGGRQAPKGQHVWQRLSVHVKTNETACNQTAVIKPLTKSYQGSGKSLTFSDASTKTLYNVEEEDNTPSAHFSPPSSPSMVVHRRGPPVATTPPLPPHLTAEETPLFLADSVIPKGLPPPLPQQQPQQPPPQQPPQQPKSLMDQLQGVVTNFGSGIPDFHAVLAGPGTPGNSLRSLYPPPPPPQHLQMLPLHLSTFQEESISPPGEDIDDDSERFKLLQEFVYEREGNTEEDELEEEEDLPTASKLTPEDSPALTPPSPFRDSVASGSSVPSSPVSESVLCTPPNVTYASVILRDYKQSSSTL

Row | pIC50 | Compound
1 | 7.57 | CC(O)CNc1nnc(C#N)c(N2CCc3ccccc3CC2)n1 (racemic) [Example 6, (RS)-3-(2-Hydroxy-propylamino)-5-(1,2,4,5-tetrahydro-benzo[d]azepin-3-yl)-[1,2,4]triazine-6-carbonitrile]
2 | 5.52 | COCCOc1nnc(C#N)c(N2CCc3ccccc3CC2)n1 [Example 1, 3-(2-Methoxy-ethoxy)-5-(1,2,4,5-tetrahydro-benzo[d]azepin-3-yl)-[1,2,4]triazine-6-carbonitrile]
3 | 7.57 | N#Cc1nnc(N)nc1N1CCc2ccccc2CC1 [Example 2, 3-Amino-5-(1,2,4,5-tetrahydro-benzo[d]azepin-3-yl)-[1,2,4]triazine-6-carbonitrile]
4 | 5.86 | CN(C)c1nnc(C#N)c(N2CCc3ccccc3CC2)n1 [Example 3, 3-Dimethylamino-5-(1,2,4,5-tetrahydro-benzo[d]azepin-3-yl)-[1,2,4]triazine-6-carbonitrile]
5 | 8.30 | N#Cc1nnc(NCC2CC2)nc1N1CCc2ccccc2CC1 [Example 4, 3-(Cyclopropylmethyl-amino)-5-(1,2,4,5-tetrahydro-benzo[d]azepin-3-yl)-[1,2,4]triazine-6-carbonitrile]
6 | 7.51 | N#Cc1nnc(NCCO)nc1N1CCc2ccccc2CC1 [Example 5, 3-(2-Hydroxy-ethylamino)-5-(1,2,4,5-tetrahydro-benzo[d]azepin-3-yl)-[1,2,4]triazine-6-carbonitrile]
7 | 6.43 | N#Cc1nnc(NN)nc1N1CCc2ccccc2CC1 [Example 7, 3-Hydrazino-5-(1,2,4,5-tetrahydro-benzo[d]azepin-3-yl)-[1,2,4]triazine-6-carbonitrile]
8 | 7.57 | CC(C)(C)OC(=O)NCCNc1nnc(C#N)c(N2CCc3ccccc3CC2)n1 [Example 8, {2-[6-Cyano-5-(1,2,4,5-tetrahydro-benzo[d]azepin-3-yl)-[1,2,4]triazin-3-ylamino]-ethyl}-Carbamic Acid Tert-Butyl Ester]
9 | 7.54 | N#Cc1nnc(NCCc2cccnc2)nc1N1CCc2ccccc2CC1 [Example 9, 3-(2-Pyridin-3-yl-ethylamino)-5-(1,2,4,5-tetrahydro-benzo[d]azepin-3-yl)-[1,2,4]triazine-6-carbonitrile]
10 | 6.33 | N#Cc1nccnc1N1CCc2ccccc2CC1 [Example 13, 3-(1,2,4,5-Tetrahydro-benzo[d]azepin-3-yl)-pyrazine-2-carbonitrile]
11 | 7.35 | Cc1nc(N2CCc3ccccc3CC2)c(C#N)nc1-c1ccccc1 [Example 14, 5-Methyl-6-phenyl-3-(1,2,4,5-tetrahydro-benzo[d]azepin-3-yl)-pyrazine-2-carbonitrile]
12 | 6.30 | N#Cc1ncc(NCCO)nc1N1CCc2ccccc2CC1 [Example 15, 5-(2-Hydroxy-ethylamino)-3-(1,2,4,5-tetrahydro-benzo[d]azepin-3-yl)-pyrazine-2-carbonitrile]
